Assay [1] deals with indicated HLA alleles. Briefly: Stability of mutant EGFR neopeptides with the HLA alleles. In kind it is binding, human. On the procedure:
(§1) Multiple peptides containing neoepitopes in the table below were either expressed or loaded onto antigen presenting cells. Mass spectrometry was then performed and the affinity of the neoepitopes for indicated HLA alleles were determined, and the stability of the neoepitopes with the HLA alleles were determined.

The target in assay [2] is indicated HLA alleles. Briefly: Affinity of mutant EGFR neopeptides for indicated HLA alleles. In kind it is binding, human.
Assay [3] addresses indicated HLA alleles (Homo sapiens, UniProt P01889). Put plainly: Affinity of GATA3 neoORF neoepitopes for the indicated HLA alleles (Example 9, Table 4). In kind it is binding. The method, then: (§2) Multiple peptides containing the neoepitopes in Table 4 below were expressed or loaded onto antigen presenting cells (APCs). Mass spectrometry was then performed and the affinity of the neoepitopes for the indicated HLA alleles and stability of the neoepitopes with the HLA alleles was determined.

Assay [4] relates to indicated HLA alleles. Briefly: Stability of GATA3 neoORF neoepitopes with the HLA alleles (Example 9, Table 4). It is filed as binding, human. The method, then:
as §2

In assay [5] the test system is indicated HLA alleles. Briefly: Stability of mutant BTK neopeptides with the HLA alleles. It is filed as binding, human. On the procedure: as §1
The next assay concerns the target HLA-A02:01 (Homo sapiens, UniProt P04439, D140Y/D185E/D98H/E176V/E277Q/G131W/G231S/I119V/I121R/I166T/I218V/L300P/L318F/N151K/N90K/P208A/P217A/Q86G/Q94H/R138H/R169H/T345S). Briefly: Stability measurements, pMHC-I dissociation with 125I light chain (Example 20). In kind it is binding. On the procedure:
(§3) To measure the binding stability of peptides to Class I MHC, synthetic genes encoding biotinylated MHC-I heavy and light chains are expressed in E. coli and purified from inclusion bodies using standard methods. […] These reactions were carried out in streptavidin coated microplates to bind the biotinylated MHC-I heavy chains to the surface and allow measurement of radiolabeled light chain to monitor complex formation. Dissociation was initiated by addition of higher concentrations of unlabeled light-chain and incubation at 37° C. Stability was defined as the length of time in hours it takes for half of the complexes to dissociate, as measured by scintillation counts. Duplicate measurements were performed. The average of the two measurements was taken as the stability.

A further assay concerns the target HLA-B08:01 (Homo sapiens, UniProt P01889, A93T/A95T/D138N/E176V/E187T/K202T/Q94N/R180D/S35A/V36M/Y33D/Y91F). The assay is described as above. It is filed as binding. On the procedure:
as §3

Assay [6] has as its target indicated HLA alleles. Briefly: Affinity of GATA3 neoORF neoepitopes for the indicated HLA alleles (Example 9, Table 4). It is filed as binding, human. The conditions noted are these: read-out: Observed MHC affinity. On the procedure: as §2
Assay [7] has as its target indicated HLA alleles. Briefly: Affinity of mutant BTK neopeptides for indicated HLA alleles. In kind it is binding, human. On the procedure:
as §1

Where no end group is shown, it is not given here.

For `CC[C@H](C)[C@H](NC(=O)[C@H](CC(C)C)NC(=O)[C@H](CCC(N)=O)NC(=O)[C@@H](NC(=O)[C@@H](NC(=O)[C@H](CO)NC(=O)[C@@H](NC(=O)[C@H](CC(C)C)NC(=O)[C@@H](N)CS)[C@@H](C)O)[C@@H](C)O)C(C)C)C(=O)N[C@@H](CCSC)C(=O)O`, the “Stability (1/2 hr)” value stood at 0 h in the assay on indicated HLA alleles [1] (EGFR T790M, HLA A01.01) and 0 h in the assay on indicated HLA alleles [1] (EGFR_T790M, HLA A02.01). The Kd at indicated HLA alleles [2] (EGFR T790M, HLA A01.01) came to 8280 nM; at indicated HLA alleles [2] (EGFR_T790M, HLA A02.01), 537 nM.

As to `CC(C)C[C@H](NC(=O)[C@@H]1CCCN1C(=O)[C@H](CCC(N)=O)NC(=O)[C@H](CC(C)C)NC(=O)[C@H](C)NC(=O)[C@H](CC(C)C)NC(=O)[C@H](Cc1c[nH]cn1)NC(=O)[C@@H]1CCCN1C(=O)[C@@H](N)CCC(=O)O)C(=O)O`, the Kd at indicated HLA alleles [3] was found to be 17 nM. Moreover, the results for the “Observed MHC stability” value in the assay with indicated HLA alleles [4] (Allele B07:02) and in the assay with indicated HLA alleles [4] (Allele B08:01) were 7.2 h and 0 h, respectively.

Consider `CC[C@H](C)[C@H](NC(=O)[C@@H](N)CC(C)C)C(=O)N[C@@H](CCSC)C(=O)N[C@@H](CCC(N)=O)C(=O)N[C@@H](CC(C)C)C(=O)N[C@@H](CCSC)C(=O)N1CCC[C@H]1C(=O)N[C@@H](Cc1ccccc1)C(=O)NCC(=O)N[C@@H](CS)C(=O)O`, for which the “Stability (1/2 hr)” value in the assay with indicated HLA alleles [1] (EGFR_T790M, HLA A02.01) was 0.3813 h. Also, at indicated HLA alleles [2] (EGFR_T790M, HLA A02.01), the Kd came to 132 nM.

Consider `CSCC[C@H](N)C(=O)N[C@@H](C)C(=O)N[C@@H](CC(N)=O)C(=O)NCC(=O)N[C@@H](CO)C(=O)N[C@@H](CC(C)C)C(=O)N[C@@H](CC(C)C)C(=O)N[C@@H](CC(N)=O)C(=O)N[C@@H](Cc1ccc(O)cc1)C(=O)N[C@@H](CC(C)C)C(=O)O`, for which the “Stability (1/2 hr)” value with indicated HLA alleles [5] (BTK_C481S, HLA A02.01) came out at 0 h; in the assay on indicated HLA alleles [5] (BTK_C481S, HLA B07.02), 0 h; with indicated HLA alleles [5] (BTK_C481S, HLA B08.01) it was 0 h.

With `CSCC[C@H](NC(=O)[C@H](CC(C)C)NC(=O)[C@H](CCC(N)=O)NC(=O)[C@@H](N)CCSC)C(=O)N1CCC[C@H]1C(=O)N[C@@H](Cc1ccccc1)C(=O)NCC(=O)N[C@@H](CS)C(=O)N[C@@H](CC(C)C)C(=O)N[C@@H](CC(C)C)C(=O)O`, the “Stability (1/2 hr)” value was determined as 0.3811 h in the assay with indicated HLA alleles [1] (EGFR_T790M, HLA A02.01); 0 h in the assay with indicated HLA alleles [1] (EGFR_T790M, HLA A24.02); 0 h in the assay with indicated HLA alleles [1] (EGFR_T790M, HLA B08.01).

On to `CC[C@H](C)[C@H](NC(=O)[C@H](CCCCN)NC(=O)[C@H](CO)NC(=O)[C@H](CCC(=O)O)NC(=O)[C@H](C)NC(=O)[C@H](CCCCN)NC(=O)[C@H](CC(C)C)NC(=O)[C@H](Cc1ccccc1)NC(=O)[C@H](CCSC)NC(=O)[C@@H](N)Cc1ccc(O)cc1)C(=O)O`, for which the “Experiment 1 half-life” value is 36 min at HLA-A02:01 and 24 min on HLA-B08:01. Moreover, the “Experiment 2 half-life” value is 36 min on HLA-A02:01 and 30 min at HLA-B08:01. The Average half-life turned out to be 36 min on HLA-A02:01 (average of experiments 1 and 2); 24 min on HLA-B08:01 (average of experiments 1 and 2). In addition, the “Observed MHC stability” value with indicated HLA alleles [4] (Allele A02.01) was found to be 0.6 h; with indicated HLA alleles [4] (Allele A24:02), 1.2 h; in the assay with indicated HLA alleles [4] (Allele B08:01), 0.4 h.

Turning to AIQPVLWTT, the Kd on indicated HLA alleles [6] (Allele A02.01) is 8 nM. In addition, the “Observed MHC stability” value in the assay on indicated HLA alleles [4] (Allele A02.01) worked out at 1.5 h.

Regarding ALQPLQPHA, the Kd at indicated HLA alleles [6] (Allele A02.01) turned out to be 604 nM. In the assay on indicated HLA alleles [4] (Allele A02.01), the “Observed MHC stability” value is 1.5 h.

EYMANGSLL: in the assay with indicated HLA alleles [5] (BTK, C481S, HLA A24.02), the “Stability (1/2 hr)” value was 5.716 h. At indicated HLA alleles [7] (BTK, C481S, HLA A24.02), this compound gave a Kd of 4.96 nM.

Consider IMQLMPFGC, for which the “Stability (1/2 hr)” value in the assay on indicated HLA alleles [1] (EGFR_T790M, HLA A02.01) is 0.3701 h. At indicated HLA alleles [2] (EGFR_T790M, HLA A02.01), this compound yielded a Kd of 1210 nM.

For the compound LIMQLMPFG, in the assay on indicated HLA alleles [1] (EGFR_T790M, HLA A02.01), the “Stability (1/2 hr)” value is 0 h. For the same compound, at indicated HLA alleles [2] (EGFR_T790M, HLA A02.01), the Kd was 3340 nM.

For LTSTVQLIM, in the assay with indicated HLA alleles [1] (EGFR T790M, HLA A01.01), the “Stability (1/2 hr)” value is 0.1037 h. Also, the Kd at indicated HLA alleles [2] (EGFR T790M, HLA A01.01) came to 2890 nM.

Take MFLKAESKI: the Kd at indicated HLA alleles [6] (Allele A24:02) amounted to 332 nM. Further, in the assay with indicated HLA alleles [4] (Allele A24:02), the “Observed MHC stability” value turned out to be 0.2 h.

Consider QPVLWTTPPL, for which the Kd on indicated HLA alleles [3] stood at 109 nM. For the same compound, the “Observed MHC stability” value with indicated HLA alleles [4] (Allele B07:02) turned out to be 1.4 h.

Take STVQLIMQL: the “Stability (1/2 hr)” value in the assay with indicated HLA alleles [1] (EGFR_T790M, HLA A02.01) was found to be 0 h. On indicated HLA alleles [2] (EGFR_T790M, HLA A02.01), this compound registered a Kd of 7260 nM.

On to YMANGSLLN, for which the “Stability (1/2 hr)” value in the assay with indicated HLA alleles [5] (BTK_C481S, HLA A02.01) was determined as 0 h. The Kd at indicated HLA alleles [7] (BTK_C481S, HLA A02.01) came to 4000 nM.
